This note sets out measurements from US9533965B2, “2-arylbenzofuran-7-formamide compounds, preparation method and use thereof” (SHANGHAI INSTITUTE OF MATERIA MEDICA, CHINESE ACADEMY OF …, priority 2012, dated 2017).

One assay concerns the target PARP2 (Homo sapiens, UniProt Q9UGN5). The experiment in a line: Enzymatic inhibition on the PARP family members (ELISA), PARP2. Particulars: PARP family panel. The assay is classed as biochemical. For orientation: In an ELISA, binding on a coated surface is turned into a signal by an enzyme label.
The next assay deals with T1, PARP3 (Homo sapiens, UniProt Q9Y6F1).
T1 sequence (Q9Y6F1 1-533): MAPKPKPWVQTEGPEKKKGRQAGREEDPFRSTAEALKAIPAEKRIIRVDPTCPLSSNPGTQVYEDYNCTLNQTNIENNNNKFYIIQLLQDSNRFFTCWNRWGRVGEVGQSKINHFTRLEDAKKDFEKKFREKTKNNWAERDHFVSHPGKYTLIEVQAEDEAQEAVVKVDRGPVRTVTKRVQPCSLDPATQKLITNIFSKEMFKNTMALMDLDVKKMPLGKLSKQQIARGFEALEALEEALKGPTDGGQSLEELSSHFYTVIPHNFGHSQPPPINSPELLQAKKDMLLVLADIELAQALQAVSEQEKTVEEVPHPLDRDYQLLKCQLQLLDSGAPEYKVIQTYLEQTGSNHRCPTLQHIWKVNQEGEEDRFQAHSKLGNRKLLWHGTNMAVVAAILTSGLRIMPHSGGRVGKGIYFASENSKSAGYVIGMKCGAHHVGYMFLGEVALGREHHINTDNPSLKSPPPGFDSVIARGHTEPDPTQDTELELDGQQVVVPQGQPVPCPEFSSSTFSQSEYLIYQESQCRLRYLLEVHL
As to the kind of experiment: Enzymatic inhibition on the PARP family members (ELISA), PARP3. The assay is classed as biochemical. As to conditions: PARP family panel.

In another assay the test system is wild type cell line V79. The experiment in a line: In vitro cell proliferation inhibition (MTT), V79 cells. The assay is classed as cell-based, Chinese hamster. Particulars: Cricetulus griseus; MTT, 72 h, wild type V79; read-out: V79 cell IC50.
The target of another assay is T2, TNKS2 (Homo sapiens, UniProt Q9H2K2).
T2 sequence (Q9H2K2 1-1166): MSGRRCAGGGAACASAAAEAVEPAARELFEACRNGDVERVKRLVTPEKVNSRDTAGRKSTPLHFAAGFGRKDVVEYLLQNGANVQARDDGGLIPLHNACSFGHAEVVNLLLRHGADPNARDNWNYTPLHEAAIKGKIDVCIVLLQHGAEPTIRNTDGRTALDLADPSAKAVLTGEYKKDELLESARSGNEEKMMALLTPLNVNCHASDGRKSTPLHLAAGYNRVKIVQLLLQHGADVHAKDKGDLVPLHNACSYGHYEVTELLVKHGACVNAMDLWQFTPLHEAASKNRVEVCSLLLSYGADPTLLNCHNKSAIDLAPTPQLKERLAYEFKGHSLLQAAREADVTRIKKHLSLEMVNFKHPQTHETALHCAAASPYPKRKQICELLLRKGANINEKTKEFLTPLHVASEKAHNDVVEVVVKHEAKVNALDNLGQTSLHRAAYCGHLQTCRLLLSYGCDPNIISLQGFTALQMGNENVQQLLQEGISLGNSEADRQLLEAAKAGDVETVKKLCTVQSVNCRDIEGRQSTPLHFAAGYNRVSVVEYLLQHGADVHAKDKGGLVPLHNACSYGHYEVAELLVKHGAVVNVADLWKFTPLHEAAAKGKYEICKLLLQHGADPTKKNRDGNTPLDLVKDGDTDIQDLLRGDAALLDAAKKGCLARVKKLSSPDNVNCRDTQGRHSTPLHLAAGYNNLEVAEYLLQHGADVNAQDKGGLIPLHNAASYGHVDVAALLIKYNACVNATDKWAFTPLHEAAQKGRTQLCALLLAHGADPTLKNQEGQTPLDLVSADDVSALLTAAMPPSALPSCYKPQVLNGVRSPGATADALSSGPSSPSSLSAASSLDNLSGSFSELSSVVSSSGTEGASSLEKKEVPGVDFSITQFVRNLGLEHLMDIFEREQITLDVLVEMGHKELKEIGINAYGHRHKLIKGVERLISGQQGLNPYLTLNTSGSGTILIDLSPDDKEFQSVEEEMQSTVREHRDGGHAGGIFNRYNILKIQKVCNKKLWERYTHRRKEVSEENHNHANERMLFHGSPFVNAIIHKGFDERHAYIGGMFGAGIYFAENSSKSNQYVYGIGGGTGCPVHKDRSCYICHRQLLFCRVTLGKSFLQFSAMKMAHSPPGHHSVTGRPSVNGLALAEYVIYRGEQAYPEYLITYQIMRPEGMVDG
The experiment in a line: Enzymatic inhibition on the PARP family members (ELISA), TNKS2. In kind it is biochemical. Particulars: PARP family panel, 30° C.

For assay [1], the system named is Chinese hamster lung fibroblast cell line VC8 (BRCA2−/−). The experiment in a line: In vitro cell proliferation inhibition (MTT), VC8 cells. In kind it is cell-based. As to conditions: Cricetulus griseus, V-C8, 72 h, MTT, 72 h, VC8 (BRCA2−/−); read-out: VC8 cell IC50.
For another assay, the target named is PARP1 (Homo sapiens, UniProt P09874). As to the kind of experiment: PARP1 enzymatic inhibition at molecular levels (ELISA). As to conditions: ELISA IC50, PARP1 enzyme, molecular level.

In general, IC50 refers to the concentration needed to halve the response being measured.

Sequence of PARP2 (Q9UGN5 whole entry): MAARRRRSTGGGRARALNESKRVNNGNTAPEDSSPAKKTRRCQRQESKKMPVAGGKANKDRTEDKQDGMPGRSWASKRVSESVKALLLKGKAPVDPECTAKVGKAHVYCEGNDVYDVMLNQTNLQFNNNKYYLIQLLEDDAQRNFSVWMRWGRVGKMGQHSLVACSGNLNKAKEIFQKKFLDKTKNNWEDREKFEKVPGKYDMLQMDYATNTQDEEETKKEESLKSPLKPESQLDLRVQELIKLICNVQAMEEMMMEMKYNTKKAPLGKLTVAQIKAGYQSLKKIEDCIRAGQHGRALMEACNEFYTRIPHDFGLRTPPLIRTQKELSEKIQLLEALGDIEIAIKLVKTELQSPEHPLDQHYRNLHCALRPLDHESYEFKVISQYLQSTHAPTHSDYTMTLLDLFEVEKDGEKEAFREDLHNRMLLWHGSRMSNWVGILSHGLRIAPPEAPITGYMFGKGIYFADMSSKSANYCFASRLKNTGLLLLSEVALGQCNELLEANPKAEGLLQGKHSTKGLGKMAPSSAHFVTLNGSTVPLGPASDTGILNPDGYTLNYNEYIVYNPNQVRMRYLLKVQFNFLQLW
Sequence of PARP1 (P09874 whole entry): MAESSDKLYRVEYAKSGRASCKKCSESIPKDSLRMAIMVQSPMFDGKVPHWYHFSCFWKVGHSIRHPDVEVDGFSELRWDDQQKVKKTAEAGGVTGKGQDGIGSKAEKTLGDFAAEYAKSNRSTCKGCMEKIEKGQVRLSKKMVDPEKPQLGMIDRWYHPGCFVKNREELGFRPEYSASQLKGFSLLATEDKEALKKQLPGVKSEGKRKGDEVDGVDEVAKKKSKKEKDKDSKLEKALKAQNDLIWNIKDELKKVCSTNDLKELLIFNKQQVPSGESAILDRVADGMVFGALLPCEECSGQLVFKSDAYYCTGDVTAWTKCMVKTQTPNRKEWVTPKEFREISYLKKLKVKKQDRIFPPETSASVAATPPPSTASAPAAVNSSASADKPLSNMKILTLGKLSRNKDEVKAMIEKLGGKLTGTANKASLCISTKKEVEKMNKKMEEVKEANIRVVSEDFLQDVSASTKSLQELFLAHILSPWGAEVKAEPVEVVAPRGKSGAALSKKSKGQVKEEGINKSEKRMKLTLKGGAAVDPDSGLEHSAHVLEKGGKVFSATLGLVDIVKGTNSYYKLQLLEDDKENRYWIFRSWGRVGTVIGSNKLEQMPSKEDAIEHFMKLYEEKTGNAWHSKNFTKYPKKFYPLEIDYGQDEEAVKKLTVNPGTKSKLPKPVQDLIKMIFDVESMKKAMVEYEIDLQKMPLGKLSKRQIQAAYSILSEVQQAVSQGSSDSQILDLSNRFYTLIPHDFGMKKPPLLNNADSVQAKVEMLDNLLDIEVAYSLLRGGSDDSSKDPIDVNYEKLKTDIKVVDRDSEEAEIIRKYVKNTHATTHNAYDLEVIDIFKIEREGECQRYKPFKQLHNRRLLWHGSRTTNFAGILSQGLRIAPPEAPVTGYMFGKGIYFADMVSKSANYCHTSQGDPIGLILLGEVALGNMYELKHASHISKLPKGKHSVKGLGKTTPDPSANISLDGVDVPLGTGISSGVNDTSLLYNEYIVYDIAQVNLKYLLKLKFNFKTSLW

`CNCc1ccc(-c2cc3cc(F)cc(C(N)=O)c3o2)cc1` [compound 5b, 5-fluoro-2-{4-[(methylamino)methyl]phenyl}benzofuran-7-carboxamide]: the IC50 is 1.9 nM at PARP2; more than 10000 nM against PARP3; more than 10000 nM with wild type cell line V79; 1300 nM at TNKS2; 590 ± 150 nM in assay [1]; 44.8 ± 12.5 nM on PARP1.
